The values that follow come from patent US8304238B2, “Cell culture medium and immobilized preparation of cell adhesion protein or peptide” (Nat'l Institute for Environmental Studies, priority 2003, dated 2012).

Where no end group is shown, it is not given here.

Format in all cases: cell-based
For experiment [1], the system named is alveolar type II epithelial cells (T2 cells). The experiment in a line: Binding strength (affinity) of immobilized LN peptides to T2 cells relative to immobilized FIB-1 (mixed immobilization, free FIB-1 competition). Also on record: key to Binding strength to T2 cells, Comprehensive evaluation: AA: extremely strongly binding/adhering; A: strongly binding/adhering; B: intermediately binding/adhering (as the same degree as FIB-1 peptide); C: more weakly binding/adhering than FIB-1 peptide. The settings on record: for Binding strength to T2 cells, Comprehensive evaluation: classification relative to FIB-1 peptide; for Binding strength to T2 cells, Ratio to FIB-1: inverse of mixing ratio at transitional midpoint, MMAC-coated well. On the procedure:
Therefore, the amount of FIB-1 peptide was set at 0.25 mg/ml, and AG73 peptide was mixed therewith, while changing its concentration ratio, from 1/1.250 of FIB-1 in an amount which is 0.20 μg/ml, to ½ of FIB-1 in an amount which is 0.125 mg/ml, and the mixture was immobilized on a well wherein a hydrophobic binding-adsorptive polymer MMAC was coated. The amount of cell adhesion in the case where T2 cells were cultured under a serum-free condition for 1 day on the immobilized peptides is shown in FIG. 9, in comparison with the case where the culture was conducted on the immobilized FIB-1, which was set at 100%.
However, in a case that the ratio of FIB-1:AG73 increased to 1:0.02, because T2 cells already transited to be adherent through the immobilized AG73 peptide, free FIB-1 peptide could no longer inhibit the cell adhesion. […] Likewise, with regard to A3G72 and A4G82 peptides, because the mixing ratio at the transitional midpoint=0.1, their binding strength to T2 cells is 10 times as much as that of FIB-1.
The method used in FIGS. 8 and 9 is extremely effective as a convenient method by which a relative order can be measured concerning to the binding strength (affinity) of cell adhesion peptides and the strength of cell adhesion can be considered quantitatively.
In Table 1, the classification is shown based on the results of the affinity (bonding/adhesion strength) between FIB-1 peptide containing RGD amino acid sequence of FN molecule, a binding site to integrin, and T2 cells: laminin α-chain G-domain peptides are classified into class AA, extremely strong binding/adhesion; class A, strong adhesion; class B, adhesion as the same degree as FIB-1; and class C, binding weaker than the described above.

Experiment [2] has the same test system. Kind of experiment: Inhibition of T2 cell adhesion to immobilized cell adhesion peptide substrates by heparin treatment. The settings on record: 24-hour culture; for Inhibition of cell adhesion to immobilized peptide by heparin treatment: 100 μg/ml heparin 2 hours. On the procedure:
100 μg/ml of heparin solution was poured into a well prepared according to the method in Example 6, wherein the cell adhesion peptides were immobilized, and the incubation was conducted for 2 hours. The heparin solution was removed after heparin bound to the immobilized cell adhesion peptides, and T2 cell suspension was seeded on the well.
It is theoretically shown that after the cell adhesion peptides first bind to heparin and are covered with heparin, the cell adhesion receptors having heparin-like sugar chain (heparan sulfate) present on the cell surface, in other words, syndecan, a protein that belongs to heparan sulfate proteoglycan, cannot bind to the cell adhesion peptides by using the sugar chain part of the heparan sulfate, thereby the cell adhesion is inhibited.

Experiment [3] shares this test system. Kind of experiment: Inhibition by free cell adhesion peptides of T2 cell adhesion to coated cell adhesion proteins FN, Col I, LN, VN. The settings on record: free peptide 0.25 mg/ml; serum-free, 1 day. On the procedure:
Commercially available FN, LN and VN, usually used as cell adhesion proteins at cell culture, were coated to wells at the concentrations of 5 μg/ml, 10 μg/ml and 10 μg/ml, respectively. In case of Col I (collagen type I), Col I at the concentration of 100 μg/ml, dissolved in 1 mM HCl, was poured into a well, left stand still for a while, and then the solution was removed and air-drying was conducted, and rinsed with the medium, before use. Next, 6×10^5 cells/ml of alveolar type II epithelial cells (T2 cells) suspended in the serum-free DMEM medium was seeded by 100 μl each on a 96-well to which the extracellular matrix was coated, and cultured in a CO2 incubator at 37° C. for 1 day. After the culture was finished, the cells were fixed with 100 μl of methanol for 5 minutes, and stained for 30 minutes with 50 μl of 0.4% crystal violet. Excessive staining was washed with water, then the number of cells adhered to FN, Col I, LN and VN, which had been coated to the wells, was counted based on the absorbance of cytoplasm (A595).
On the other hand, among amino acid sequences of various LN molecules, the sequences that induce cell adhesion are known to be present. […] Then, the number of cells was counted in accordance with the method described above.

Experiment [4] shares this test system. Kind of experiment: Inhibition of T2 cell adhesion by free peptide different from the immobilized peptide substrate. The settings on record: for Inhibition by free peptide of T2 cell adhesion to immobilized AG73: AG73 (etc.) immobilized; for Inhibition by free peptide of T2 cell adhesion to immobilized FIB-1: FIB-1 immobilized; for Inhibition by free peptide of T2 cell adhesion to immobilized AG81.2 and AG73T: AG81.2 and AG73T immobilized. On the procedure:
Results obtained by adding the free peptides different from the immobilized peptides when T2 cells were cultured on the immobilized peptide prepared according to the method in Example 7, were shown in FIG. 8.
When adding the free peptides that were the same as the immobilized peptides in the culture medium, the both (free and immobilized) peptides compete for syndecan of T2 cells and as a result, the cell adhesion is inhibited (see Example 7). So far, four types of syndecans are genetically known. Whether these syndecans are commonly owned or accommodated by each peptide, overlapping only by some degrees, otherwise mutually exclusive, was examined herein.

Experiment [5] shares this test system. The experiment in a line: Adhesion of T2 cells to immobilized cell adhesion peptide substrates and inhibition by the same free peptide. The settings on record: for Competitive inhibition of cell adhesion by the same free cell adhesion peptide: immobilized by MMAC or MAST, free peptide 0.25 mg/ml; for Inhibition degree of cell adhesion, Free peptide: T2 cells on immobilized peptide, same free peptide coexistent at 0.25 mg/ml. On the procedure:
All treatments are assumed to be aseptic treatments. First, in the case of cell adhesion proteins, 10 μg/ml of a hydrophobic binding-adsorptive polymer, such as MMAC and MAST, and in the case of peptides, 50 μg/ml of MMAC and MAST is dissolved in ethanol, the solution is filtered and poured by 50 μl each into a 96-well with no surface treatment for cell culture, leave it stand still for a while, and then MMAC etc., are removed and air-drying is conducted. Next, 10-20 μg/ml of cell adhesion protein or 0.25 mg/ml of peptide is dissolved in 0.1 M triethanolamine buffer, a solution of pH 8.8, and the mixture was poured by 50 μl each into a 96-well previously coated with MMAC etc. The solution is reacted overnight while humidifying in an incubator heated at 37° C. After the reaction finishes, the reaction liquid is absorbed, the remaining reaction solution is rinsed out with the medium, and the immobilized preparation of cell adhesion proteins or peptides is prepared. The preparation, as described in the following Examples, can be used for cell cultures as cell adhesion protein or peptide substrates.
T2 cells suspended in the serum-free DMEM medium at the concentration of 6×10^4 cells/100 μl were seeded in the well prepared according to the manner in Example 6, wherein cell adhesion peptides were immobilized, and cultured in a CO2 incubator at 37° C. for 24 hours. Then, in accordance with the manner in Example 7, the cells were fixed with methanol, stained, and the absorbance was measured. Just before seeding the cells, the free peptides, the same kind as the cell adhesion peptides used for immobilization, were also added to the cell suspension, and the absorbance was measured after the culture in the same manner as described above. As to the case wherein FN was applied as a standard material, the measurement was conducted as well.
FIGS. 4 and 5 show the results obtained with the use of wells prepared by using laminin α-chain G-peptides and FIB-1 peptide as cell adhesion peptides, and as a hydrophobic binding-adsorptive polymer, MMAC was used in FIG. 4, and MAST was used in FIG. 5.

Experiment [6] has the same test system. The experiment in a line: Inhibition of T2 cell adhesion to immobilized pseudomatrix by treatment with polyclonal antibodies for the peptides. On the procedure:
Each pseudomatrix prepared in Example 13 to which cell adhesion peptide was bound (MBAC-peptide) was diluted in DMEM medium to the concentration of 1-10 μg/ml, poured into a 96-well by 100 μl each, and left still overnight in a CO2 incubator to be adsorbed and immobilized on the wells. Non-adsorbed MBAC-peptides were removed by rinsing well with DMEM medium. Next, 100 μl of antibodies diluted with serum-free DMEM to the concentration of 4-10 μg/ml was poured into a well, incubated for 2-4 hours to let the antibodies bind to the peptides. Normal IgG was used for control groups. Antibodies were removed after the treatment, T2 cells suspended at the concentration of 6×10^5 cells/ml were seeded by 100 μl each. After 1-day serum-free culture, T2 cells were fixed with 100 μl of methanol for 5 minutes, and stained with 50 μl of 0.4% crystal violet for 30 minutes. Excessive staining was washed with water, and the number of adhering cells was counted based on the absorbance of cytoplasm (A595).

As for GPLPSYLQFVGI, the “Binding strength to T2 cells, Comprehensive evaluation” value in experiment [1] is reported as “B”. In addition, the “Binding strength to T2 cells, Ratio to FIB-1” value in experiment [1] (FIB-1 0.25 mg/ml) is reported as under 1. Further, the “Mixing ratio at the transitional midpoint” value in experiment [1] (peptide:FIB-1 co-immobilized, FIB-1 0.25 mg/ml, loss of inhibition by free FIB-1) is “about 1”. Moreover, in experiment [2] (immobilized peptide treated with 100 μg/ml heparin 2 hours), the “Inhibition degree of cell adhesion, Heparin” value is reported as “No”. Moreover, the “Inhibition of adhesion of T2 cells to FN, Col I, LN and VN by free peptide” value in experiment [3] is on record as “inhibited adhesion of T2 cells”. In experiment [4], the “Inhibition by free peptide of T2 cell adhesion to immobilized AG73” value is on record as “inhibited the cell adhesion” and the “Inhibition by free peptide of T2 cell adhesion to immobilized FIB-1” value was “could inhibit”.
Take RNRLHLSMLVRP: in experiment [5], the “Competitive inhibition of cell adhesion by the same free cell adhesion peptide” value was “without competitive inhibition”. For the same substance, the “Binding strength to T2 cells, Comprehensive evaluation” value in experiment [1] is “C”. In addition, the “Inhibition of cell adhesion to immobilized peptide by heparin treatment” value (from here on “Inhibition … by heparin treatment”) in experiment [2] was “inhibition of adhesion”.
As to VKTEYIKRKAFM, in experiment [5], the “Inhibition degree of cell adhesion, Free peptide” value (“Inhibition degree … Free peptide” for short) was “No” and the “Competitive inhibition of cell adhesion by the same free cell adhesion peptide” value is given as “without competitive inhibition”. Moreover, the “Binding strength to T2 cells, Comprehensive evaluation” value in experiment [1] is “C”. Further, the “Binding strength to T2 cells, Ratio to FIB-1” value in experiment [1] (FIB-1 0.25 mg/ml) is reported as under 1. Also, in experiment [2], the “Inhibition … by heparin treatment” value is recorded as “inhibition of adhesion”. In experiment [4], the “Inhibition by free peptide of T2 cell adhesion to immobilized AG73” value was “cannot inhibit it”; the “Inhibition by free peptide of T2 cell adhesion to immobilized AG81.2 and AG73T” value was “could not competitively inhibit their immobilized peptide, or even if they can, only slightly”; the “Inhibition by free peptide of T2 cell adhesion to immobilized FIB-1” value is on record as “could not inhibit”.
For the substance LQQRRSVLRTKI, in experiment [5], the “Inhibition degree … Free peptide” value is “No” and the “Competitive inhibition of cell adhesion by the same free cell adhesion peptide” value was “without competitive inhibition”. In addition, the “Binding strength to T2 cells, Comprehensive evaluation” value in experiment [1] is “C”. Besides, in experiment [2], the “Inhibition … by heparin treatment” value was “inhibition of adhesion”. Further, in experiment [4], the “Inhibition by free peptide of T2 cell adhesion to immobilized AG73” value is “cannot inhibit it”; the “Inhibition by free peptide of T2 cell adhesion to immobilized AG81.2 and AG73T” value is given as “could not competitively inhibit their immobilized peptide, or even if they can, only slightly”; the “Inhibition by free peptide of T2 cell adhesion to immobilized FIB-1” value was “could not inhibit”.
Regarding “MBAC-AG73T: pseudomatrix: MBAC polymer reacted with AG73T peptide (LQQRRSVLRTKI)”, in experiment [6] (MBAC-peptide 1-10 μg/ml in DMEM), the “Cell adhesion ability of immobilized pseudomatrix compared with coated FN” value is recorded as “the same level of cell adhesion ability as in the case where FN was coated”. In addition, the “Inhibition of cell adhesion by treatment with antibodies for the peptides” value in experiment [6] (antibodies 4-10 μg/ml, 2-4 hours) is given as “specifically inhibited”.
Consider KNRLTIELEVRT, for which, in experiment [5], the “Inhibition degree … Free peptide” value is given as “No” and the “Competitive inhibition of cell adhesion by the same free cell adhesion peptide” value was “without competitive inhibition”. Further, the “Binding strength to T2 cells, Comprehensive evaluation” value in experiment [1] is recorded as “C”. Further, the “Inhibition … by heparin treatment” value in experiment [2] is recorded as “inhibition of adhesion”.
Regarding TLQLQEGRLHFM, in experiment [5], the “Inhibition degree … Free peptide” value is “No” and the “Competitive inhibition of cell adhesion by the same free cell adhesion peptide” value is given as “without competitive inhibition”. In experiment [1], the “Binding strength to T2 cells, Comprehensive evaluation” value is recorded as “C”. Moreover, the “Inhibition … by heparin treatment” value in experiment [2] is listed as “inhibition of adhesion”.
On to GEKSQFSIRLKT, for which, in experiment [5], the “Inhibition degree … Free peptide” value is “No” and the “Competitive inhibition of cell adhesion by the same free cell adhesion peptide” value is listed as “without competitive inhibition”. In experiment [1], the “Binding strength to T2 cells, Comprehensive evaluation” value was “C”. The “Inhibition … by heparin treatment” value in experiment [2] is listed as “inhibition of adhesion”.
